# US12002595B2, “Separation of metal ions by liquid-liquid extraction” (priority 2016, dated 2024)
# Legend:
# [1] = Persistence of the metal complex versus acidity; type: binding; conditions: Ti^4+
# [2] = Stability constant (log βML) of ligand-metal complexes; type: binding
# Text: Thus far, no stability constant has been published for the actinium (Ac^3+) complex of 3,4,3-LI(1,2-HOPO). Based on the ionic radius of Ac^3+ (1.22 Å; See, D. Lundberg, I. Persson, The size of actinoid(III) ions—structural analysis vs. common misinterpretations, Coord. Chem. Rev. 318 (2016) 131-134. doi:10.1016/j.ccr.2016.04.003) and stability constants determined for other actinide and lanthanide ions, the stability of the Ac^3+ complex is expected to be very low, with a log β[AcL]- value of about 12 (FIG. 22). Stability of constant of 3,4,3-LI(1,2-HOPO) complexes with trivalent ions as a function of the ionic radius of the metal is shown in FIG. 22. […] Ionic radius values taken from Lundberg et al. for nona-coordinated metal ions. The Ac^3+ data point is an estimate. See, Lundberg, I. Persson, The size of actinoid(III) ions—structural analysis vs. common misinterpretations, Coord. Chem. Rev. 318 (2016) 131-134. doi:10.1016/j.ccr.2016.04.003; D. Lundberg, I. Persson, L. Eriksson, P. D'Angelo, S. De Panfilis, Structural Study of the N,N′-Dimethylpropyleneurea Solvated Lanthanoid(III) Ions in Solution and Solid State with an Analysis of the Ionic Radii of Lanthanoid(III) Ions, Inorg. Chem. 49 (2010) 4420-4432. doi:10.1021/ic100034q.
smiles,measurement,setting,value
"O=C(NCCCN(CCCCN(CCCNC(=O)c1cccc(=O)n1O)C(=O)c1cccc(=O)n1O)C(=O)c1cccc(=O)n1O)c1cccc(=O)n1O [3,4,3-LI(1,2-HOPO)]",acidity range over which the ligand stays bound,[1],from pH 6 to 10 M HCl (at least)
same,log β[AcL]-,"[2]; Ac^3+ complex, expected from ionic radius (1.22 Å) and constants of other ions",about 12
same,log βML,"[2]; Ac^3+, estimate based on ionic radius",10-14
